These results are taken from US20120270915A1, “FATTY ACID AMIDE HYDROLASE INHIHIBITORS FOR TREATING PAIN” (priority 2011, published 2012).

Assay [1] deals with T1, FAAH Rat brain (Rattus norvegicus, UniProt P97612).
T1 construct: from tissue; host or cells: rat brain membranes
T1 sequence (P97612 1-579): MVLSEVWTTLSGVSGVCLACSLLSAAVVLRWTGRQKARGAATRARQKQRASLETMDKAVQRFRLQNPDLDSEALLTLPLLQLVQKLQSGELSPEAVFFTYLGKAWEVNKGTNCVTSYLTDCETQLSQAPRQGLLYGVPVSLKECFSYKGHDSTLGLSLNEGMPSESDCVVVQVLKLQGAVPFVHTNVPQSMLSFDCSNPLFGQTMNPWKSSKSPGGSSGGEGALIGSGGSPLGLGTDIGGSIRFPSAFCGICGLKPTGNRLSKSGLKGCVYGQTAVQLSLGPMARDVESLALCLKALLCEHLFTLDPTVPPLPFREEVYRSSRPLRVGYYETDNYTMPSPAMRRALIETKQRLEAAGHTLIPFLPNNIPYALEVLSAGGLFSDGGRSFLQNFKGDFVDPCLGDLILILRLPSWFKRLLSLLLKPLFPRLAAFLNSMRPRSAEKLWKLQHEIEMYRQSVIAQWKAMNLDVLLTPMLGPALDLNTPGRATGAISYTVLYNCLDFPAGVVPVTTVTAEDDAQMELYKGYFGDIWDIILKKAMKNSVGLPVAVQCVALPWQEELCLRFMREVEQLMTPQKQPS
Kind of assay: FAAH inhibitory activity, rat brain membranes, [14C]-AEA hydrolysis. The assay is classed as biochemical. The method, then: The compounds of Examples 12, and 19 are tested for FAAH inhibitory activity as follows:
Method 1: Membranes obtained from rat brain are incubated with 2 mM [^14C]-AEA, 30 min at 37° C. at pH values ranging from 9.00 to 10.00 in presence and absence of tested compounds in a final volume of […]. Incubation is stopped by extraction with CHCl3/MeOH (1:1) and the aqueous phases containing [^14C]-Ethanolamine produced by [^14C]-AEA hydrolysis are measured.

In assay [2] the target is FP receptor (Homo sapiens, UniProt P43088). Kind of assay: Prostanoid receptor antagonism (FLIPR), FP. The assay is classed as cell-based.
FP receptor, sequence (P43088 whole entry): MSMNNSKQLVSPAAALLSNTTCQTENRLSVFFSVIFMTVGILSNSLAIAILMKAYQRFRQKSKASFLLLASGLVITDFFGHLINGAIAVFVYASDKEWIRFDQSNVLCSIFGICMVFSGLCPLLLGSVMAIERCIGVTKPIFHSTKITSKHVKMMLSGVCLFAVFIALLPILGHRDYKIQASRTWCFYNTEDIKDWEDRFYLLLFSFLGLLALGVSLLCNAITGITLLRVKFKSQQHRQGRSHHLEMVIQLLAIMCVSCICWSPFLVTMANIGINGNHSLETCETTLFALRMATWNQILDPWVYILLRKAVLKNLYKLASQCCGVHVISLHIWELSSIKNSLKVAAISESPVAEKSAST
Assay [3] addresses T2, DP receptor (Homo sapiens, UniProt Q13258).
T2 sequence (Q13258 1-359): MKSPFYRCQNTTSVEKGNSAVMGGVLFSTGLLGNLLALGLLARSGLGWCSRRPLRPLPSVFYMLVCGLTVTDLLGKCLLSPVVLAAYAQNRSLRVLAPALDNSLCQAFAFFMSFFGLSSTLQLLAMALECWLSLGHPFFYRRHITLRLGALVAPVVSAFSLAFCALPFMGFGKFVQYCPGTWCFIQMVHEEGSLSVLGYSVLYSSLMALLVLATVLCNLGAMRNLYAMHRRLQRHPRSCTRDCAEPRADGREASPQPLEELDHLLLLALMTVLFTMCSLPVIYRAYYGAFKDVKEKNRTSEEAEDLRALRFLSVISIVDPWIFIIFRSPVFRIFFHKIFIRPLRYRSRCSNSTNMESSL
Kind of assay: Prostanoid receptor antagonism (FLIPR), DP. The assay is classed as cell-based.

For assay [4], the target named is T3, EP1 receptor (Homo sapiens, UniProt P34995).
T3 sequence (P34995 1-402): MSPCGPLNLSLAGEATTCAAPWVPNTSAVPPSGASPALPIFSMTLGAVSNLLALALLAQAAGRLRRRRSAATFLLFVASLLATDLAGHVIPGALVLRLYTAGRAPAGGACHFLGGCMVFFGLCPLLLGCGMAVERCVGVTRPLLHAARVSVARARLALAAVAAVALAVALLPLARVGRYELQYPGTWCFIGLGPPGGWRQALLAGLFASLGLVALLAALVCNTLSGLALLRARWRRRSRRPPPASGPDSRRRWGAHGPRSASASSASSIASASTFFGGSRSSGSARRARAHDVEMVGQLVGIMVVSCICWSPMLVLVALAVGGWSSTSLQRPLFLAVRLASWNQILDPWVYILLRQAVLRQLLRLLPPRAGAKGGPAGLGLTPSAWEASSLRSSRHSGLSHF
The experiment in a line: Prostanoid receptor antagonism (FLIPR), EP1. Type of assay: cell-based.

In assay [5] the target is EP2 receptor (Homo sapiens, UniProt P43116). Kind of assay: Prostanoid receptor antagonism (FLIPR), EP2. Type of assay: cell-based.
EP2 receptor, sequence (P43116 whole entry): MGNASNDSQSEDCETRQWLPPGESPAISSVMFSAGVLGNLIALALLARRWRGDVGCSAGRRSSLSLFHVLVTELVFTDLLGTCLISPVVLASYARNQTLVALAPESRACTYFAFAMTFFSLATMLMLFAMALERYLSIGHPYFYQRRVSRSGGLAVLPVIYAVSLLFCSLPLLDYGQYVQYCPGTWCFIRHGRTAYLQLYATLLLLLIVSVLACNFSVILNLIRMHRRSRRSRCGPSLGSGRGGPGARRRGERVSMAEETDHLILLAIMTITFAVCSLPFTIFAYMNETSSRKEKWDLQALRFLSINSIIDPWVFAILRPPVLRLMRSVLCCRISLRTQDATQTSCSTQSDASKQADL
Assay [6] deals with T4, EP3 receptor (Homo sapiens, UniProt P43115).
T4 sequence (P43115 1-390): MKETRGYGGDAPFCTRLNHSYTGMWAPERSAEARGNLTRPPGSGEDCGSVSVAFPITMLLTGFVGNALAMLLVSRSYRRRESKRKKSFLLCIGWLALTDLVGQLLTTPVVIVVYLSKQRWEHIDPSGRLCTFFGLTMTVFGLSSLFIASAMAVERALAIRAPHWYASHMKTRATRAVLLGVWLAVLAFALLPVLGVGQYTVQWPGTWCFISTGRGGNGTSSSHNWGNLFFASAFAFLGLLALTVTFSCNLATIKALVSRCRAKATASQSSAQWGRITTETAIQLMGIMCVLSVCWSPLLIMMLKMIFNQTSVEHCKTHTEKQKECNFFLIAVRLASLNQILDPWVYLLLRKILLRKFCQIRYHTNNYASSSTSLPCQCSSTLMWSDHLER
Kind of assay: Prostanoid receptor antagonism (FLIPR), EP3. Type of assay: cell-based.

In assay [7] the target is EP4 receptor (Homo sapiens, UniProt P35408). The experiment in a line: Prostanoid receptor antagonism (FLIPR), EP4. Type of assay: cell-based.
EP4 receptor, sequence (P35408 whole entry): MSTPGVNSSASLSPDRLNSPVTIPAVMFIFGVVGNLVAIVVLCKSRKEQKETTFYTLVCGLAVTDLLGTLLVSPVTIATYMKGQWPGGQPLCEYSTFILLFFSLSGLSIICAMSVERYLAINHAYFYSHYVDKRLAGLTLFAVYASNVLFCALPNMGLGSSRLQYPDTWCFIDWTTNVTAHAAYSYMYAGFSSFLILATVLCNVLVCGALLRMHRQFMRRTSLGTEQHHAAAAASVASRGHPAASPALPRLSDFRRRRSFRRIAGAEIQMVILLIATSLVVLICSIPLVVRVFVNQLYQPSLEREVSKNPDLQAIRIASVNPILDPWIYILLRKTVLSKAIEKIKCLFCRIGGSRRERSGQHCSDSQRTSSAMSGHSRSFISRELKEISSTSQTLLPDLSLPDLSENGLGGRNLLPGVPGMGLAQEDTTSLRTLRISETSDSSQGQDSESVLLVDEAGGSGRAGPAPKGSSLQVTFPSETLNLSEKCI
In assay [8] the target is IP receptor (Homo sapiens, UniProt P43119). The experiment in a line: Prostanoid receptor antagonism (FLIPR), IP. Type of assay: cell-based.
IP receptor, sequence (P43119 whole entry): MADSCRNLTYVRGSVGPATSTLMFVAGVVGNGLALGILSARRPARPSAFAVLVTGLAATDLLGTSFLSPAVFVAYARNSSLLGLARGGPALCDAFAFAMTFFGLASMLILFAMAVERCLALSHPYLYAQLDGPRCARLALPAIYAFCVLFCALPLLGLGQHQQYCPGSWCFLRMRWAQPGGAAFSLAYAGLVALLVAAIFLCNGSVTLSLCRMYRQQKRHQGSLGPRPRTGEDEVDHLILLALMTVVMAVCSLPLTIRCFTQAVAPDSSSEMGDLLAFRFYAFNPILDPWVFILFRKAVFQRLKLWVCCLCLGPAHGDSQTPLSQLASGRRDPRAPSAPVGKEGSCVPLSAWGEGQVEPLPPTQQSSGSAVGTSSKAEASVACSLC
Assay [9] has as its target T5, TP receptor (Homo sapiens, UniProt P21731).
T5 sequence (P21731 1-343): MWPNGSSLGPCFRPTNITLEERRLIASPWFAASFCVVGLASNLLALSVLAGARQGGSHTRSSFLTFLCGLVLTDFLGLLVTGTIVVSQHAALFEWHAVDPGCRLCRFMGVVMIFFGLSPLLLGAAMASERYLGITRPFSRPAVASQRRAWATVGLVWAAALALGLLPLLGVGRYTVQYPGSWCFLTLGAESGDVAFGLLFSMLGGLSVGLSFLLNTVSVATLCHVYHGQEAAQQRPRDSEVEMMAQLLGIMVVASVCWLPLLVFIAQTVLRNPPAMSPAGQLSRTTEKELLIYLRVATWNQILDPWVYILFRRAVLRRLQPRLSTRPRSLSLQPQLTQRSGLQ
The experiment in a line: Prostanoid receptor antagonism (FLIPR), TP. The assay is classed as cell-based.

The mark [10] stands for this setting: Table 1, rat brain, read-out: FAAH Rat brain IC50.
Setting [11] is: Table 2, rat brain, read-out: FAAH Rat brain IC50.

Where two headings read alike, the source gives them in different places.

Broadly, the IC50 is the concentration at which inhibition is half-maximal. For orientation: Kb means the equilibrium dissociation constant of an antagonist, usually derived from a functional assay. Low values mean a more potent antagonist, high ones a less potent antagonist. In the case of `O=C(CCc1ccc(F)cc1CN1CCC[C@H]1c1nc(C(=O)NCCCCC2CCCCC2)co1)NS(=O)(=O)C(F)(F)F` [Example 12a], the IC50 in [1] (setting [10]) came out at 1000 nM. Moreover, the Kb was 350 nM in assay [2] (Table 1); below 1 nM in [3] (Table 1); 50 nM in assay [4] (Table 1); 6400 nM in [5] (Table 1); 80 nM in assay [6] (Table 1); 40 nM in [7] (Table 1). Moreover, the results for the Kb in assay [8] (Table 1) and in assay [9] (Table 1) were 550 nM and below 1 nM, respectively.

On to `O=C(CCc1ccc(Cl)cc1CN1CCC[C@H]1c1nc(C(=O)NCCCCC2CCCCC2)co1)NS(=O)(=O)C(F)(F)F` [Example 12b, (S)—N-(4-cyclohexylbutyl)-2-(1-(5-chloro-2-(3-oxo-3-(trifluoromethylsulfonamido)propyl)benzyl)pyrrolidin-2-yl)oxazole-4-carboxamide], for which, in assay [1] (setting [10]), the IC50 came to 4500 nM. The Kb in assay [2] (Table 1) was 460 nM; in [3] (Table 1) it was below 1 nM; in assay [4] (Table 1) it was 70 nM; in [5] (Table 1) it was 5500 nM; in assay [6] (Table 1), 100 nM; in [7] (Table 1), 40 nM. Also, the figures for the Kb in assay [8] (Table 1) and in [9] (Table 1) were 9500 nM and below 1 nM, respectively.

In the case of `COc1ccc(CCC(=O)NS(=O)(=O)C(F)(F)F)c(CN2CCC[C@H]2c2nc(C(=O)NCCCCC3CCCCC3)co2)c1` [Example 12c, (S)—N-(4-cyclohexylbutyl)-2-(1-(5-methoxy-2-(3-oxo-3-(trifluoromethylsulfonamido)propyl)benzyl)pyrrolidin-2-yl)oxazole-4-carboxamide], the IC50 in [1] (setting [10]) was found to be 200 nM. Moreover, the Kb in [2] (Table 1) turned out to be 270 nM; in assay [3] (Table 1), 17 nM; in assay [4] (Table 1), 20 nM; in [5] (Table 1) it was 830 nM; in assay [6] (Table 1), 47 nM; in assay [7] (Table 1) it was 10 nM. Moreover, the Kb is 860 nM in [8] (Table 1) and below 1 nM in assay [9] (Table 1).

As to `O=C(CCc1cc2c(cc1CN1CCC[C@H]1c1nc(C(=O)NCCCCC3CCCCC3)co1)OCO2)NS(=O)(=O)C(F)(F)F` [Example 12d], in assay [1] (setting [10]), the IC50 was determined as 740 nM. Besides, the Kb stood at 360 nM in [2] (Table 1); 3 nM in [3] (Table 1); 60 nM in assay [4] (Table 1); 3900 nM in [5] (Table 1); 150 nM in assay [6] (Table 1); 7 nM in assay [7] (Table 1). Further, the results for the Kb in [8] (Table 1) and in assay [9] (Table 1) were 1000 nM and 0.3 nM, respectively.

As for `CCCCCCCCNC(=O)c1coc([C@@H]2CCCN2Cc2cc(F)ccc2CCC(=O)NS(=O)(=O)C(F)(F)F)n1` [Example 12e, 2-{1-[5-fluoro-2-(3-oxo-3-{[(trifluoromethyl)sulfonyl]amino}propyl)benzyl]pyrrolidin-2-yl}-N-octyl-1,3-oxazole-4-carboxamide], the IC50 in assay [1] is 2100 nM. For the same compound, the Kb in assay [2] (Table 1) stood at 270 nM; in [3] (Table 1), 20 nM; in assay [4] (Table 1), 20 nM; in assay [5] (Table 1), 2500 nM; in assay [6] (Table 1), 110 nM; in [7] (Table 1) it was 20 nM. Also, the Kb was 290 nM in assay [8] (Table 1) and below 1 nM in [9] (Table 1).

Take `CCCCCCCCNC(=O)c1coc([C@@H]2CCCN2Cc2cc(OC)ccc2CCC(=O)NS(=O)(=O)C(F)(F)F)n1` [Example 12f, 2-{1-(5-methoxy-2-(3-oxo-3-{[(trifluoromethyl)sulfonyl]amino]propyl)benzyl]pyrrolidin-2-yl}-N-octyl-1,3-oxazole-4-carboxamide]: the IC50 in [1] (setting [10]) was found to be 500 nM. The Kb is 380 nM in assay [2] (Table 1); below 1 nM in assay [3] (Table 1); 60 nM in [4] (Table 1); 1100 nM in [5] (Table 1); 140 nM in [6] (Table 1); 20 nM in assay [7] (Table 1). Moreover, the Kb in [8] (Table 1) is 400 nM; in [9] (Table 1) it was below 1 nM.

As for `COc1ccc(CCC(=O)NS(=O)(=O)CCCF)c(CN2CCC[C@H]2c2nc(C(=O)NCCCCC3CCCCC3)co2)c1` [Example 12h, 2(S)—N-(4-cyclohexylbutyl)-2-(1-(5-methoxy-2-(3-oxo-3-(fluoropropylsulfonamido)propyl)benzyl)pyrrolidin-2-yl)oxazole-4-carboxamide], the IC50 in assay [1] (setting [11]) was 100 nM. Also, the Kb amounted to 2000 nM in [2] (Table 2); 8 nM in [3] (Table 2); 830 nM in [4] (Table 2); 7800 nM in [5] (Table 2, NA = inactive); 50 nM in assay [6] (Table 2); 150 nM in [7] (Table 2). This compound also showed a Kb in assay [9] (Table 2) of 8 nM.

Turning to `COc1ccc(CCC(=O)NS(=O)(=O)C(C)C)c(CN2CCC[C@H]2c2nc(C(=O)NCCCCC3CCCCC3)co2)c1` [Example 12i, (S)—N-(4-cyclohexylbutyl)-2-(1-(5-methoxy-2-(3-oxo-3-(isopropylsulfonamido)propyl)benzyl)pyrrolidin-2-yl)oxazole-4-carboxamide], in assay [1] (setting [11]), the IC50 was determined as 150 nM. Moreover, the Kb stood at 1500 nM in assay [2] (Table 2); 44 nM in assay [3] (Table 2); 1900 nM in assay [4] (Table 2); 480 nM in [6] (Table 2); 210 nM in assay [7] (Table 2); 1 nM in [9] (Table 2).

On to `COc1ccc(CCC(=O)NS(=O)(=O)c2ccc(Cl)s2)c(CN2CCC[C@H]2c2nc(C(=O)NCCCCC3CCCCC3)co2)c1` [Example 12j, (S)—N-(4-cyclohexylbutyl)-2-(1-(5-methoxy-2-(3-oxo-3-(5-chlorothienylsulfonamido)propyl)benzyl)pyrrolidin-2-yl)oxazole-4-carboxamide], for which the IC50 in assay [1] (setting [11]) was found to be 210 nM. The Kb in assay [2] (Table 2) amounted to 2300 nM; in assay [3] (Table 2), 28 nM; in assay [4] (Table 2), 240 nM; in assay [5] (Table 2, NA = inactive), 900 nM; in assay [6] (Table 2), 10 nM; in assay [7] (Table 2), 360 nM. Besides, in assay [9] (Table 2), the Kb was determined as 4 nM.

On to `COc1ccc(CCC(=O)NS(=O)(=O)N(C)C)c(CN2CCC[C@H]2c2nc(C(=O)NCCCCC3CCCCC3)co2)c1` [Example 12k], for which the IC50 in assay [1] (setting [11]) amounted to 200 nM. Moreover, the Kb turned out to be 1400 nM in [2] (Table 2); 80 nM in assay [3] (Table 2); 3100 nM in assay [4] (Table 2); 4000 nM in [5] (Table 2, NA = inactive); 5600 nM in assay [6] (Table 2); 400 nM in assay [7] (Table 2). In addition, the Kb in assay [8] (Table 2, NA = inactive) is 2900 nM; in assay [9] (Table 2), 13 nM.
